These results are taken from patent US7670591B2, “Heteroaryl substituted benzoxazoles” (AstraZeneca AB, priority 2006, dated 2010).

A word on the IC50: it is the point on the concentration scale where inhibition reaches its midpoint. As a reminder, the Kd is a measure of binding affinity in units of concentration.

Data set [1] has as its target T1, synthetic Aβ 1-40 (Homo sapiens, UniProt P05067).
T1 construct: using synthetic Aβ 1-40 in 2.7 nM of
Nature of the data set: Competition binding assay ([3H]PIB as radioligand). The method, then:
Competition binding was performed in 384-well FB filter plates using synthetic Aβ 1-40 in 2.7 nM of [^3H]PIB (or another ^3H-labeled radioligand when so mentioned) in phosphate buffer at pH 7.5, by adding various concentrations of non-radioactive compounds originally dissolved in DMSO. The binding mixture was incubated for 30 min at room temperature, followed by vacuum filtration, and subsequentially by washing twice with 1% Triton-X100. Scintillation fluid was thereafter added to the collected Aβ 1-40 on the filter plate, and the activity of the bound remaining radioligand ([^3H]PIB or another ^3H-labeled radioligand) was measured using 1450 Microbeta from PerkinElmer (FIG. 1). Specific binding was determined according to the competion binding assay described herein. The determined IC50's in the competion binding assays (using [^3H]PIB as radioligand) of 5 compounds of the present invention are shown in Table 2.

The target in data set [2] is T2, human synthetic Aβ 1-40 fibrils (Homo sapiens, UniProt P05067).
T2 construct: human synthetic Aβ 1-40 fibrils
Nature of the data set: Saturation binding experiments. Conditions: amyloid Aβ 1-40 fibrils in vitro, AVG; for Kd: two site binding. The procedure:
Saturation binding experiments were performed in 96-well polypropylene deep well plates. 2 μM human synthetic Aβ 1-40 fibrils in phosphate buffer pH 7.5, or buffer alone as control, were incubated with increasing concentration of a ^3H-labeled radioligand of the present invention for 1 hr at room temperature. The radioactivity still bound to the Aβ 1-40 fibrils at the end of the incubation was detected on FB filters after filtration in a Brandel apparatus using a wash buffer containing 0.1% Triton-X100. Results were corrected for nonspecific, nondisplaceable binding defined as the number of counts from wells without Aβ 1-40 fibrils (replaced with assay buffer).

The conditions of data set [3]: cited from earlier work.
The mark [4] stands for this setting: [3H]PIB as radioligand, Table 2.

SMILES strings stand for the structures. Read-outs that look alike come from different tables or passages of the source.

T1 sequence (P05067 672-711 limits assumed): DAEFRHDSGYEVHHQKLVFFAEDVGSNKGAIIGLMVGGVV
T2 sequence (P05067 672-711 limits assumed): as above

With `COc1ccc2nc(-c3ccc(N(C)C)nc3)oc2c1` [Example 1, 5-(6-Methoxy-1,3-benzoxazol-2-yl)-N,N-dimethylpyridin-2-amine], the concentration for half-maximal inhibition (IC50) in data set [1] (setting [4]) worked out at 0.204 µM.

On to `CN(C)c1ccc(-c2nc3ccc(O)cc3o2)cn1` [Example 2, 2-[6-(Dimethylamino)pyridin-3-yl]-1,3-benzoxazol-6-ol], for which the concentration for half-maximal inhibition (IC50) in data set [1] (setting [4]) amounted to 0.085 µM.

The compound `CNc1ccc(-c2nc3ccc(OC)cc3o2)cn1` [Example 3, 5-(6-Methoxy-1,3-benzoxazol-2-yl)-N-methylpyridin-2-amine] had an IC50 in data set [1] (setting [4]) of 0.186 µM.

The compound `COc1ccc2nc(-c3ccc(N(C)C(C)=O)nc3)oc2c1` [Example 4, N-[5-(6-Methoxy-1,3-benzoxazol-2-yl)pyridin-2-yl]-N-methylacetamide] returned an IC50 in data set [1] (setting [4]) of 15.7 µM.

Take `CNc1ccc(-c2nc3ccc(O)cc3o2)cn1` [Example 5, 2-[6-(Methylamino)pyridin-3-yl]-1,3-benzoxazol-6-ol]: the “Bmax 1” value in data set [2] (site 1) is listed as 0.9099 pmol/nmol Ab. Further, in data set [2] (site 2), the “Bmax 2” value is on record as 4.298 pmol/nmol Ab. For the same compound, the dissociation constant Kd worked out at 0.00533 µM in data set [2] (site 1, read-out: Kd 1) and 0.0633 µM in data set [2] (site 2, read-out: Kd 2). The IC50 in data set [1] (setting [4]) was found to be 0.182 µM; in data set [1] (amyloid Aβ 1-40 fibrils in vitro, AVG), 0.182 µM.

On to `CN(C)c1ccc(-c2nc3ccc(I)cc3o2)cc1` [IBOX], for which, in data set [3] (compared with TZDM), the brain entrance result was “relatively higher brain entrance”. Also, the “clearance from normal brain tissue” value in data set [3] (compared with related analogues) is given as “relatively more rapid clearance from normal brain tissue”.
